Results taken from US20110166142A1, “2-SUBSTITUTED ISOFLAVONOID COMPOUNDS, MEDICAMENTS AND USES” (priority 2007, published 2011).
Read-outs that look alike come from different tables or passages of the source.

What was measured:
[1] = Free radical scavenging (DPPH); details: 0.1 mM DPPH in ethanol, 20 minutes, absorbance 517 nm; concentration causing 0.6 change in absorbance; read-out: Free radical scavenging ability EC50
Protocol: The antioxidant (free radical trapping) activity of test compounds was assessed using the stable free radical compound 2,2-diphenyl-1-picrylhydrazyl (DPPH). A stock solution of DPPH was prepared at a concentration of 0.1 mM in ethanol and mixed for 10 minutes prior to use. Test compounds at a concentration of 100 μM were reacted with DPPH for 20 minutes, after which time the absorbance at 517 nm was determined and the change in absorbance compared to a reagent blank (DPPH with ethanol alone). A dose response curve was produced for those compounds with free radical scavenging activity (ΔAbs>0.3) at 100 μM. The IC50 value was estimated as the concentration of test compound that caused a 0.6 change in absorbance (with 1.2 absorbance units representing total scavenging of the DPPH radical).

[2] = test system: Neonatal foreskin fibroblasts (NFF); assay: Toxicity to normal cells: neonatal foreskin fibroblasts (MTT); format: cell-based; details: Homo sapiens, Fibroblast, 120 h, 5 days, mean ± SD, maximum concentration 150 μM
Protocol: (§1) Neonatal foreskin fibroblasts (NFF), a gift from Dr. Peter Parsons (Queensland Institute of Medical Research) were cultured in RPMI supplemented with 10% FBS (Gibco, Australia), penicillin (100 U/ml), streptomycin ([…]), L-glutamine (2 mM) and sodium bicarbonate (1.2 g/L), and cultured at 37° C. in a humidified atmosphere of 5% CO2 for 5 days. Test compounds were added in serial two-fold dilutions from 150 μM in triplicate. These assays were run twice.
(§2) Cell proliferation was assessed after the addition of 20 μl of 3-4,5 dimethylthiazol-2,5-diphenyl tetrazolium bromide (MTT, 5 mg/ml in PBS, Sigma) for 3 hrs at 37° C. according to manufacturer's instructions, by comparing mean absorbance values of test compounds with that of the control.

RAW 264.7 macrophage = assay: Toxicity to normal cells: RAW 264.7 macrophage (MTT); format: cell-based; details: Mus musculus, RAW264.7, 24 hours, single assay, maximum concentration 150 μM
Protocol: (§3) In a single assay, RAW 264.7 cells were seeded in 96-well plates at an appropriate cell density as determined from growth kinetics analysis and cultured for 24 hours in the absence and presence of the test compounds. Test compounds were added in serial two-fold dilutions from 150 μM in triplicate.
as §2

[3] = test system: panel of normal, non-transformed cells; assay: Toxicity to normal cells, overall statement (NFF and RAW 264.7); format: cell-based; details: maximum concentration examined 150 μM
Protocol: as §1, §3, §2

CP70 = assay: Anti-cancer activity, ovarian CP70 (MTT); format: cell-based; details: 5 days, Geometric Mean ± SD (Log-normal Distribution)
Protocol: The ovarian cancer cell line, CP70 was obtained as a gift from Dr. Gil Mor (Yale University) and routinely cultured in DMEM/Hams F-12 1:1 (Gibco, Cat#11320-082) supplemented with 10 mM HEPES (Sigma, Cat#H0887), 1× non essential amino acids (Sigma, Cat#M7145), 5.0 g/L sodium bicarbonate (Sigma, Cat#S5761), and 1 mM sodium pyruvate (Sigma, Cat#S8636).
(§4) All cultures were supplemented with 10% FBS (Gibco, Cat#10099-158), 5000 U/ml penicillin and 5 mg/ml streptomycin (Gibco, Cat#15070), and cultured at 37° C. in a humidified atmosphere of 5% CO2.
(§5) IC50 values were determined for each cell line. Cells were seeded in 96-well plates at an appropriate cell density as determined from growth kinetics analysis and cultured for 5 days in the absence and presence of the test compounds. Cell proliferation was assessed after the addition of 20 μl of 3-4,5 dimethylthiazol-2,5-diphenyl tetrazolium bromide (MTT, 2.5 mg/ml in PBS, Sigma) for 3-4 hrs at 37° C. according to manufacturer's instructions. IC50 values were calculated from semi-log plots of % of control proliferation on the y-axis against log dose on the x-axis.

HPAC = assay: Anti-cancer activity, pancreatic HPAC (MTT); format: cell-based; details: Homo sapiens, 120 h, 5 days, Geometric Mean ± SD (Log-normal Distribution)
Protocol: The human pancreatic cancer cell line, HPAC (CRL-2119) was routinely cultured in DMEM/Hams F-12 1:1 (Gibco) and supplemented with 15 mM HEPES, 0.002 mg/ml insulin (Sigma, Cat#I9278), 0.005 mg/ml transferrin (Sigma, Cat#T8158), 40 ng/ml hydrocortisone (Sigma, Cat#H0135) and 10 ng/ml epidermal growth factor (Sigma, Cat#E4269).
as §4, §5

HT-29 = assay: Anti-cancer activity, colorectal HT-29 (MTT); format: cell-based; details: Homo sapiens, HT-29, 120 h, 5 days, Geometric Mean ± SD (Log-normal Distribution)
Protocol: (§6) The colon adeno-carcinoma cell line HT-29 (HTB-38™) and prostate adenocarcinoma cell line PC-3 (CRL-435™) were cultured in RPMI 1640 medium (Gibco, Cat#21870-076).
as §4, §5

MDA-MB-468 = assay: Anti-cancer activity, breast MDA-MB-468 (MTT); format: cell-based; details: Homo sapiens, MDA-MB-468, 120 h, 5 days, Geometric Mean ± SD (Log-normal Distribution)
MM200 = assay: Anti-cancer activity, melanoma MM200 (MTT); format: cell-based; details: 120 h, 5 days, Geometric Mean ± SD (Log-normal Distribution)
NCI-H460 = assay: Anti-cancer activity, lung NCI-H460 (MTT); format: cell-based; details: Homo sapiens, NCI-H460, 120 h, 5 days, Geometric Mean ± SD (Log-normal Distribution)
Protocol: The large cell lung cancer cell line NCI-H460 was cultured in RPMI 1640 medium additionally supplemented with 4.5 g/L glucose (Sigma, Cat#G8769), 5.0 g/L sodium pyruvate, 5 g/L sodium bicarbonate and buffered with 10 mM HEPES.
as §4, §5

PC-3 = assay: Anti-cancer activity, prostate PC-3 (MTT); format: cell-based; details: Homo sapiens, PC-3, 120 h, 5 days, Geometric Mean ± SD (Log-normal Distribution)
Protocol: as §6, §4, §5

[4] = test system: various cell lines representative of different cancer indications; assay: Anti-cancer activity, summary over several cell lines; format: cell-based
Protocol: as §5

[5] = read-out: IC50 RAW 264.7 macrophage Unstimulated
[6] = read-out: IC50 RAW 264.7 macrophage with LPS
[7] = read-out: IC50 range against MDA-MB-468 and PC-3 cell lines

Row | Compound | melting point [°C] | EC50 [1] [µM] | IC50 [2] [µM] | IC50 (RAW 264.7 macrophage; [5]) [µM] | IC50 (RAW 264.7 macrophage; [6]) [µM] | toxicity in the tests performed [3] | IC50 (CP70; 120 h) [µM] | IC50 (HPAC) [µM] | IC50 (HT-29) [µM] | IC50 (MDA-MB-468) [µM] | IC50 (MM200) [µM] | IC50 (NCI-H460) [µM] | IC50 (PC-3) [µM] | IC50 [4, 7] [µM] | activity against the cell lines tested ([4]; HPAC, MDA-MB-468 and PC-3) | IC50 ([4]; read-out: IC50 range against all cell lines tested) [µM] | IC50 (CP70) [µM] | IC50 ([4]; read-out: IC50 range against CP70, MDA-MB-468, NCI-H460 and PC-3 cell lines) [µM]
1 | CC(=O)Oc1ccc(C2=Cc3ccc(OC(C)=O)cc3OC2C#N)cc1 (stereo not drawn) [Example 17, 4′,7-Diacetoxy-2-cyano-isoflav-3-ene] | 156 to 158 |  |  |  |  |  |  |  |  |  |  |  |  |  |  |  |  | 
2 | CC1Oc2cc(O)ccc2C=C1c1cccc(O)c1 (stereo not drawn) [Compound 6] |  | 49.6 | 138.6 ± 1.05 | > 150 | 140 | mild to moderate toxicity | 72.9 ± 1.07 | 74.6 ± 1.24 | ≥ 150 | 17 ± 1 | 137.8 ± 1.16 | 114.8 ± 1 | 31.7 ± 1.05 | 14 to 32 |  |  |  | 
3 | CCSC1Oc2cc(O)ccc2C=C1c1ccc(O)cc1 (stereo not drawn) [Compound 18, 2-Ethylthio-4′,7-dihydroxy-isoflav-3-ene] |  | 20 |  |  |  |  |  |  |  |  |  |  |  |  |  |  |  | 
4 | CC(=O)Oc1ccc(C2=Cc3ccc(OC(C)=O)cc3OC2CNC(=O)OC(C)(C)C)cc1 (stereo not drawn) [Example 23, 4′,7-Diacetoxy-2-(N—(BOC)aminomethyl)-isoflav-3-ene] | 52 to 54 |  |  |  |  |  |  |  |  |  |  |  |  |  |  |  |  | 
5 | CC1Oc2cc(O)ccc2CC1c1ccc(O)cc1 (stereo not drawn) [Compound 8] |  |  | > 150 | > 150 | > 150 | no toxicity |  | ≥ 150 |  | 66.3 ± 1.05 |  |  | 78.7 ± 1.26 |  | little activity |  |  | 
6 | COC1Oc2cc(O)ccc2C=C1c1ccc(O)cc1 (stereo not drawn) [Compound 13, 4′,7-Dihydroxy-2-methoxy-isoflav-3-ene] |  | 21.8 |  |  |  |  |  |  |  |  |  |  |  |  |  |  |  | 
7 | CCC1Oc2cc(O)ccc2C=C1c1ccc(O)cc1 (stereo not drawn) [Compound 2] |  |  | 97.8 ± 1 | 15.2 | 90.6 | mild to moderate toxicity |  | 56 ± 1.03 |  | 2.41 ± 1.26 | 70.9 ± 1 |  | 4.14 ± 1.04 | 2 to 29 |  |  |  | 
8 | CCOC1Oc2cc(O)ccc2C=C1c1ccc(O)cc1 (stereo not drawn) [Compound 14, 2-Ethoxy-4′,7-dihydroxy-isoflav-3-ene] |  | 24.1 |  |  |  |  |  |  |  |  |  |  |  |  |  |  |  | 
9 | C=CCC1Oc2cc(O)ccc2C=C1c1ccc(O)cc1 (stereo not drawn) [Compound 1] |  | 22.8 | 14.7 ± 3.05 | 4.7 | 2.2 | markedly toxic | 8.39 ± 2.8 | 5.21 ± 1.88 | 9.36 ± 2.88 | 3.25 ± 1.51 | 6.37 ± 1.39 | 6.72 ± 1.05 | 3.96 ± 2.02 |  |  | 3 to 10 |  | 
10 | Oc1ccc(C2=Cc3ccc(O)cc3OC2O)cc1 (stereo not drawn) [Compound 16, 2,4′,7-Trihydroxy-isoflav-3-ene] | > 325 |  |  |  |  |  |  |  |  |  |  |  |  |  |  |  |  | 
11 | Cc1cc(O)cc2c1C=C(c1ccc(O)cc1)C(C)O2 (stereo not drawn) [Compound 7] |  | 38.4 | 126.6 ± 1.01 | 98.8 | 115 | mild to moderate toxicity | ~31 | 60.5 ± 1.21 | ≥ 150 | 14.5 ± 1.07 | 102 ± 1.27 | 51.5 ± 1.03 | 31.9 ± 1.47 | 14 to 32 |  |  | 31.1 ± 1.06 | 
12 | CC1Oc2cc(O)ccc2C=C1c1ccc(O)cc1 (stereo not drawn) [Compound 3] |  |  | 140.3 ± 1.07 | 9.3 | 102 | mild to moderate toxicity | 8.39 ± 1.13 | 59.3 ± 1.28 | 110.1 ± 1.03 | 5.18 ± 1.09 | 69.4 ± 1.22 | 12.6 ± 1.1 | 12 ± 1.22 |  |  |  |  | 5 to 13
13 | Cc1c(O)ccc2c1OC(C)C(c1ccc(O)cc1)=C2 (stereo not drawn) [Compound 5] |  | 44.8 | > 150 | > 150 | > 150 | no toxicity |  | 84.4 ± 1.34 |  | 16.7 ± 1.18 |  | 41.1 ± 1 | 29 ± 1.05 | 2 to 29 |  |  |  | 
14 | CCC1Oc2cc(O)ccc2CC1c1ccc(O)cc1 (stereo not drawn) [Compound 4] |  |  | 122.2 ± 1 | 28.3 | > 150 | mild to moderate toxicity |  | 103 ± 1.16 |  | 7.23 ± 1.07 |  |  | 16.6 ± 1.08 | 2 to 29 |  |  |  | 
